The record followed here is US12509482B2, “3′-ketoglycoside compound for the slow release of a volatile alcohol” (GLYCOSCIENCE, S.L., priority 2020, dated 2025).

Like-named read-outs stand apart in the source and are kept apart here.

The nature of series [1]: Example 24: release of geraniol from geranyl-3′-keto-2′-deoxyglucopyranoside vs 2′-deoxyglucopyranoside, 0.1 M deuterated phosphate buffer or D2O, 50% D6-DMSO, 32° C. The series is classed as physicochemical. As to the method:
In this example the rate of release of geraniol from (2R,3R)-6-(((E)-3,7-dimethylocta-2,6-dien-1-yl)oxy)-3-hydroxy-2-(hydroxymethyl)tetrahydro-4H-pyran-4-one in (geranyl-3′-keto-2′-deoxyglucopyranoside) 0.1 M deuterated phosphate buffer solutions of differing pH containing 50% D6-DMSO was determined.
(§1) 0.1 M of pH 5.8 and 7.4 stock buffered solutions of sodium dihydrogen phosphate and disodium hydrogen phosphate were prepared in deuterated water (D2O).
A stock solution of 15 mg of geraniol-O-β-D-3′-keto-2′-deoxyglucopyranoside in 1.5 mL of D6-DMSO were prepared.
(§2) After times indicated in table below, the mixtures where analysed by ^1H-NMR in a 400 MHz instrument.

A short description of series [2]: Example 23: release of methanol from methyl-O-α-D-3′-ketomannopyranoside vs methyl-O-α-D-mannopyranoside, 0.1 M deuterated phosphate buffer or D2O, 15% D6-DMSO, 32° C. The format is physicochemical. As to the method:
In this example the rate of release of methanol from (2R,3R,5R,6S)-3,5-dihydroxy-2-(hydroxymethyl)-6-methoxytetrahydro-4H-pyran-4-one (methyl-O-α-D-3′-ketomannopyranoside) vs. (2R,3S,4S,5S,6S)-2-(hydroxymethyl)-6-methoxytetrahydro-2H-pyran-3,4,5-triol (methyl-O-α-D-mannopyranoside) in D2O containing 15% D6-DMSO or in 0.1 M deuterated phosphate buffer solutions of differing pH containing 15% D6-DMSO or in D2O was determined.
as §1
A stock solution of 25 mg of methyl-O-α-D-3′-ketoglucomannoside in 1.0 mL of D6-DMSO were prepared.
as §2

On to `CC(C)=CCC/C(C)=C/CO[C@H]1CC(=O)[C@H](O)[C@@H](CO)O1` [geranyl-3′-keto-2′-deoxyglucopyranoside, (2R,3R)-6-(((E)-3,7-dimethylocta-2,6-dien-1-yl)oxy)-3-hydroxy-2-(hydroxymethyl)tetrahydro-4H-pyran-4-one], for which, in series [1] (32° C.), the “stability / geraniol release (in words)” value is “generates geraniol at both pH 5.8 and pH 7.4”. For the same molecule, the “% Conversion by 1H-NMR” value was 0% in series [1] (D2O, 0 h); 0% in series [1] (D2O, 1 h); less than 5% in series [1] (D2O, 72 h); less than 5% in series [1] (D2O, 144 h); 0% in series [1] (pH 5.8, 0 h); 5% in series [1] (pH 5.8, 1 h). Besides, the “% Conversion by 1H-NMR” value amounted to 32% in series [1] (pH 5.8, 72 h); 38% in series [1] (pH 5.8, 144 h); 47% in series [1] (pH 5.8, 288 h); 0% in series [1] (pH 7.4, 0 h); 6% in series [1] (pH 7.4, 1 h); 57% in series [1] (pH 7.4, 72 h). Also, the “% Conversion by 1H-NMR” value in series [1] (pH 7.4, 144 h) worked out at 88%; in series [1] (pH 7.4, 288 h), 100%. In series [1] (similar conditions), the “rate of geraniol release compared with other ketoglycosides (in words)” value is reported as “greater than observed from geranyl-O-β-D-3′-ketoglucopyranoside under similar conditions”.

Take `CC(C)=CCC/C(C)=C/CO[C@H]1C[C@@H](O)[C@H](O)[C@@H](CO)O1` [geranyl-O-2′-deoxyglucopyranoside, geranyl 2′-deoxy-β-D-glucopyranoside, reference compound]: the “stability / geraniol release (in words)” value in series [1] is “remains stable at pH 7.4”. Also, the “% Conversion by 1H-NMR” value is 0% in series [1] (pH 7.4, 0 h); 0% in series [1] (pH 7.4, 1 h); 0% in series [1] (pH 7.4, 72 h); 0% in series [1] (pH 7.4, 144 h); 0% in series [1] (pH 7.4, 288 h).

As for `CO[C@H]1O[C@H](CO)[C@@H](O)C(=O)[C@@H]1O` [methyl-O-α-D-3′-ketomannopyranoside, (2R,3R,5R,6S)-3,5-dihydroxy-2-(hydroxy-methyl)-6-methoxytetrahydro-4H-pyran-4-one], the “stability / methanol release (in words)” value in series [2] (4.2 mg/mL) was “generates methanol at both pH 5.8 and pH 7.4”. Besides, the “% Conversion by 1H-NMR” value in series [2] (D2O, 0 h) stood at 0%; in series [2] (D2O, 22 h), 0%; in series [2] (pH 5.8, 0 h), 0%; in series [2] (pH 5.8, 22 h) it was 71%; in series [2] (pH 5.8, 96 h), 78%; in series [2] (pH 5.8, 192 h), 78%. The “% Conversion by 1H-NMR” value in series [2] (pH 7.4, 0 h) came out at 0%; in series [2] (pH 7.4, 22 h), 54%; in series [2] (pH 7.4, 96 h) it was 74%; in series [2] (pH 7.4, 192 h), 88%.

On to `CO[C@H]1O[C@H](CO)[C@@H](O)[C@H](O)[C@@H]1O` [methyl-O-α-D-mannopyranoside, (2R,3S,4S,5S,6S)-2-(hydroxymethyl)-6-methoxytetrahydro-2H-pyran-3,4,5-triol], for which the “stability / methanol release (in words)” value in series [2] (32° C.) was “remains stable at pH 7.4 and in water”. Also, the “% Conversion by 1H-NMR” value in series [2] (D2O, 0 h) is listed as 0%; in series [2] (D2O, 22 h) it was 0%; in series [2] (D2O, 96 h), 0%; in series [2] (pH 7.4, 0 h), 0%; in series [2] (pH 7.4, 22 h) it was 0%; in series [2] (pH 7.4, 96 h), 0%. The “% Conversion by 1H-NMR” value in series [2] (pH 7.4, 192 h) is listed as 0%.
